# Results: PubChem BioAssay (NCI)
#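 GI50 is the concentration that inhibits growth by half. TGI marks complete inhibition of growth.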
# Legend:
# Assay in all cases: growth of human tumour cells (NCI), 384-well format
# [1] = system: 786-0 renal
# [2] = system: A498 renal
# [3] = system: A549 NSCLC
# [4] = system: ACHN renal
# [5] = system: BT-549 breast
# [6] = system: CAKI-1 renal
# [7] = system: CCRF-CEM leukemia
# [8] = system: COLO 205 colon
# [9] = system: DU-145 prostate
# [10] = system: EKVX NSCLC
# [11] = system: HCC-2998 colon
# [12] = system: HCT-116 colon
# [13] = system: HCT-15 colon
# [14] = system: HL-60(TB) leukemia
# [15] = system: HOP-62 NSCLC
# [16] = system: HOP-92 NSCLC
# [17] = system: HS 578T breast
# [18] = system: HT29 colon
# [19] = system: IGROV1 ovarian
# [20] = system: K-562 leukemia
# [21] = system: KM12 colon
# [22] = system: LOX IMVI melanoma
# [23] = system: M14 melanoma
# [24] = system: MALME-3M melanoma
# [25] = system: MCF7 breast
# [26] = system: MDA-MB-231 breast
# [27] = system: MDA-MB-435 melanoma
# [28] = system: MDA-MB-468 breast
# [29] = system: MOLT-4 leukemia
# [30] = system: NCI-H226 lung
# [31] = system: NCI-H23 lung
# [32] = system: NCI-H322M lung
# [33] = system: NCI-H460 NSCLC
# [34] = system: NCI-H522 lung
# [35] = system: NCI/ADR-RES ovarian
# [36] = system: OVCAR-3 ovarian
# [37] = system: OVCAR-4 ovarian
# [38] = system: OVCAR-5 ovarian
# [39] = system: OVCAR-8 ovarian
# [40] = system: PC-3 prostate
# [41] = system: RPMI-8226 leukemia
# [42] = system: RXF 393 renal
# [43] = system: SF-268 CNS
# [44] = system: SF-295 CNS
# [45] = system: SF-539 CNS
# [46] = system: SK-MEL-28 melanoma
# [47] = system: SK-MEL-5 melanoma
# [48] = system: SK-OV-3 ovarian
# [49] = system: SN12C renal
# [50] = system: SNB-19 CNS
# [51] = system: SNB-75 CNS
# [52] = system: SW-620 colon
# [53] = system: T-47D breast
# [54] = system: TK-10 renal
# [55] = system: U251 glioblastoma
# [56] = system: UACC-257 melanoma
# [57] = system: UACC-62 melanoma
# [58] = system: UO-31 renal
# [59] = system: SR leukemia
smiles,measurement,setting,value
CCOc1ccn(-c2ccc(F)cc2)c(=O)c1C(=O)Nc1ccc(Oc2ccnc(N)c2Cl)c(F)c1,GI50,[1],33.4 µM
same,TGI,[1],> 100 µM
same,GI50,[2],5.04 µM
same,TGI,[2],85.8 µM
same,GI50,[3],7.37 µM
same,TGI,[3],26.3 µM
same,GI50,[4],10.8 µM
same,TGI,[4],> 100 µM
same,GI50,[5],8.41 µM
same,TGI,[5],27.8 µM
same,GI50,[6],4.4 µM
same,TGI,[6],23.1 µM
same,GI50,[7],1.91 µM
same,TGI,[7],3.51 µM
same,GI50,[8],2.06 µM
same,TGI,[8],4.32 µM
same,GI50,[9],7.49 µM
same,TGI,[9],> 100 µM
same,GI50,[10],9.83 µM
same,TGI,[10],58.6 µM
same,GI50,[11],24.3 µM
same,TGI,[11],68.1 µM
same,GI50,[12],4.85 µM
same,TGI,[12],18.4 µM
same,GI50,[13],4.27 µM
same,TGI,[13],27.7 µM
same,GI50,[14],5.02 µM
same,TGI,[14],13.6 µM
same,GI50,[15],8.81 µM
same,TGI,[15],98.3 µM
same,GI50,[16],5.06 µM
same,TGI,[16],25.9 µM
same,GI50,[17],5.13 µM
same,TGI,[17],21.2 µM
same,GI50,[18],4.42 µM
same,TGI,[18],23.3 µM
same,GI50,[19],6.27 µM
same,TGI,[19],40.5 µM
same,GI50,[20],1.6 µM
same,TGI,[20],3.62 µM
same,GI50,[21],0.314 µM
same,TGI,[21],> 100 µM
same,GI50,[22],5.57 µM
same,TGI,[22],18.2 µM
same,GI50,[23],2.95 µM
same,TGI,[23],11.1 µM
same,GI50,[24],4.88 µM
same,TGI,[24],20.7 µM
same,GI50,[25],11.2 µM
same,TGI,[25],> 100 µM
same,GI50,[26],9.78 µM
same,TGI,[26],49.3 µM
same,GI50,[27],6.2 µM
same,TGI,[27],39.5 µM
same,GI50,[28],3.97 µM
same,TGI,[28],10.3 µM
same,GI50,[29],1.44 µM
same,TGI,[29],2.9 µM
same,GI50,[30],9.81 µM
same,TGI,[30],> 100 µM
same,GI50,[31],2.64 µM
same,TGI,[31],24.6 µM
same,GI50,[32],29.3 µM
same,TGI,[32],> 100 µM
same,GI50,[33],3.35 µM
same,TGI,[33],12.1 µM
same,GI50,[34],4.35 µM
same,TGI,[34],15.7 µM
same,GI50,[35],10.1 µM
same,TGI,[35],28.7 µM
same,GI50,[36],5.47 µM
same,TGI,[36],27.3 µM
same,GI50,[37],8.05 µM
same,TGI,[37],> 100 µM
same,GI50,[38],19.7 µM
same,TGI,[38],> 100 µM
same,GI50,[39],14.3 µM
same,TGI,[39],48.1 µM
same,GI50,[40],4.15 µM
same,TGI,[40],90.3 µM
same,GI50,[41],3.52 µM
same,TGI,[41],> 100 µM
same,GI50,[42],4 µM
same,TGI,[42],18.6 µM
same,GI50,[43],2.01 µM
same,TGI,[43],8.11 µM
same,GI50,[44],3.81 µM
same,TGI,[44],57.7 µM
same,GI50,[45],5.67 µM
same,TGI,[45],26.9 µM
same,GI50,[46],5.1 µM
same,TGI,[46],38.7 µM
same,GI50,[47],2.99 µM
same,TGI,[47],12.2 µM
same,GI50,[48],4.37 µM
same,TGI,[48],20.9 µM
same,GI50,[49],1.95 µM
same,TGI,[49],46.2 µM
same,GI50,[50],22.4 µM
same,TGI,[50],> 100 µM
same,GI50,[51],15.4 µM
same,TGI,[51],35.1 µM
same,GI50,[52],12 µM
same,TGI,[52],28.9 µM
same,GI50,[53],1.67 µM
same,TGI,[53],4.29 µM
same,GI50,[54],16.2 µM
same,TGI,[54],95 µM
same,GI50,[55],16.3 µM
same,TGI,[55],> 100 µM
same,GI50,[56],6.47 µM
same,TGI,[56],27.5 µM
same,GI50,[57],2.62 µM
same,TGI,[57],12.4 µM
same,GI50,[58],8.63 µM
same,TGI,[58],59.3 µM
Cn1cc(-c2cnn3c(N)c(Br)c(C4CCCNC4)nc23)cn1 (configuration not stated),GI50,[2],< 0.01 µM
same,TGI,[2],0.0226 µM
same,GI50,[3],7.68 µM
same,TGI,[3],28.6 µM
same,GI50,[5],0.033 µM
same,TGI,[5],5.25 µM
same,GI50,[6],1.46 µM
same,TGI,[6],15.2 µM
same,GI50,[8],0.922 µM
same,TGI,[8],5.81 µM
same,GI50,[9],0.227 µM
same,TGI,[9],15.6 µM
same,GI50,[10],3.54 µM
same,TGI,[10],23.8 µM
same,GI50,[11],< 0.01 µM
same,TGI,[11],0.0624 µM
same,GI50,[12],2.01 µM
same,TGI,[12],15.6 µM
same,GI50,[13],2.08 µM
same,TGI,[13],19.4 µM
same,GI50,[14],0.032 µM
same,TGI,[14],0.129 µM
same,GI50,[16],0.0263 µM
same,TGI,[16],33.3 µM
same,GI50,[17],0.0302 µM
same,TGI,[17],18.9 µM
same,GI50,[18],0.989 µM
same,TGI,[18],12.9 µM
same,GI50,[19],0.0563 µM
same,TGI,[19],13.2 µM
same,GI50,[21],0.117 µM
same,TGI,[21],15.8 µM
same,GI50,[22],1.33 µM
same,TGI,[22],4.22 µM
same,GI50,[25],1.36 µM
same,TGI,[25],17.9 µM
same,GI50,[26],2.9 µM
same,TGI,[26],42.2 µM
same,GI50,[28],3.75 µM
same,TGI,[28],24.4 µM
same,GI50,[29],0.0234 µM
same,TGI,[29],0.053 µM
same,GI50,[30],3.29 µM
same,TGI,[30],18.6 µM
same,GI50,[31],0.027 µM
same,TGI,[31],21.2 µM
same,GI50,[32],0.293 µM
same,TGI,[32],22.1 µM
same,GI50,[33],0.93 µM
same,TGI,[33],10.9 µM
same,GI50,[34],2.56 µM
same,TGI,[34],11.4 µM
same,GI50,[35],2.04 µM
same,TGI,[35],> 100 µM
same,GI50,[36],0.188 µM
same,TGI,[36],20.3 µM
same,GI50,[37],< 0.01 µM
same,TGI,[37],26.6 µM
same,GI50,[38],0.0964 µM
same,TGI,[38],16.5 µM
same,GI50,[39],0.0382 µM
same,TGI,[39],21.2 µM
same,GI50,[40],1.8 µM
same,TGI,[40],14.6 µM
same,GI50,[41],0.0358 µM
same,TGI,[41],0.643 µM
same,GI50,[42],0.0332 µM
same,TGI,[42],25 µM
same,GI50,[43],5.36 µM
same,TGI,[43],27.2 µM
same,GI50,[46],11.1 µM
same,TGI,[46],26.5 µM
same,GI50,[47],0.0346 µM
same,TGI,[47],1.2 µM
same,GI50,[48],0.0621 µM
same,TGI,[48],23.2 µM
same,GI50,[49],0.0371 µM
same,TGI,[49],3.72 µM
same,GI50,[50],0.983 µM
same,TGI,[50],37.1 µM
same,GI50,[51],4.99 µM
same,TGI,[51],25.3 µM
same,GI50,[59],< 0.01 µM
same,GI50,[53],14.6 µM
same,TGI,[53],37.1 µM
same,GI50,[55],5.36 µM
same,TGI,[55],20.3 µM
same,GI50,[56],2.29 µM
same,TGI,[56],19.5 µM
same,GI50,[57],0.88 µM
same,TGI,[57],15.3 µM
